# Results reported in patent US11591323B2, “Muscarinic agonists as non-steroidal and non-opioid analgesics and methods of use thereof” (Barry University, priority 2019, dated 2023).
# Tests used:
# Assay type in all cases: cell-based
# [1] = molecular target: T1, M2 muscarinic receptor (Homo sapiens, UniProt P08172); assay: accumulation of IPX, M2 CHO cells with promiscuous G15 G-protein (M2Gq+G15); design: expressed in transfected cells; host or cells: CHO cells, pCMV/hygro vector, hygromycin selection; settings: for RAi / E′MAX / τ / Δlog(τ/KA): M2Gq ± G15 (↑IPX); for RAi: Table 8, relative to carbachol; for accumulation of IPX: M2 co-transfected with G15, in words; for E′MAX / τ: Table 8; for Δlog(τ/KA): Table 8, to carbachol
# T1 sequence (P08172 1-466): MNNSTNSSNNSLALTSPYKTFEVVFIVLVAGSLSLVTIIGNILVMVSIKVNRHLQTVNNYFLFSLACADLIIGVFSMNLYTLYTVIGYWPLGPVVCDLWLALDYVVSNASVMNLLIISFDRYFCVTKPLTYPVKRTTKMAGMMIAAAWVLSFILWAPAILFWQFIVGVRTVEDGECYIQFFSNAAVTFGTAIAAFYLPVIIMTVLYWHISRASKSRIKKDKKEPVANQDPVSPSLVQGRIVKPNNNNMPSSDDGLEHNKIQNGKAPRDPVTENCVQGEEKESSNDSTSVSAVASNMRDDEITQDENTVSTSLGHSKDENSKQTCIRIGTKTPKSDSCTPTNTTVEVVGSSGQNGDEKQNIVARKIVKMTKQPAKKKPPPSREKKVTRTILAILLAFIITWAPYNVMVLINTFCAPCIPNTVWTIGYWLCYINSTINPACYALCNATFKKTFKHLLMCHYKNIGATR
# Description: (§1) Since activation of phospholipase C (PLC) via M2 and M4 receptors is weak, cells were transferred with G15 G-protein to facilitate coupling.
# (§2) To determine level of cAMP, cells in suspension were pre-incubated for 1 h with 0.4 μM [^3H]adenine, washed, and incubated for 10 min in the presence of isobutylmethylxanthine and 10 μM forskolin. […] Incubation was ended by addition of 0.2 ml of 2.5 M HCl to the samples. Samples were applied to alumina columns (1.5 g of alumina per column), washed with 2 ml ammonium acetate (pH=7.0) and eluted from columns with 4 ml ammonium acetate and measured by liquid scintillation spectrometry. […] The incubation was stopped by addition of 0.5 ml of chloroform methanol HCl mixture (2:1:0.1). After separation of water and organic phases, 0.6 ml of water phase was applied to Dowex columns (1.5 g of Dowex per column), washed by 20 ml of 60 mM ammonium formate/5 mM sodium borate buffer and eluted from columns with 4 ml of 1M ammonium formate/0.1 formic acid buffer and measured by liquid scintillation spectrometry.
# (§3) Measurements of the production of cAMP and inositol phosphates: Levels of second messengers cAMP and inositol phosphates were determined in radiochemical chromatography assays as described previously. To determine level of cAMP, cells in suspension were pre-incubated for 1 h with 0.4 μM [^3H]adenine, washed, and incubated for 10 min in the presence of isobutylmethylxanthine and 10 μM forskolin. […] Incubation was ended by addition of 0.2 ml of 2.5 M HCl to the samples. Samples were applied to alumina columns (1.5 g of alumina per column), washed with 2 ml ammonium acetate (pH=7.0) and eluted from columns with 4 ml ammonium acetate and measured by liquid scintillation spectrometry. […] For this purpose, new CHO cell lines stably expressing promiscuous G15 G-protein and M2 or M4 receptor were generated by transfection with pCMV/hygro vector and hygromycin selection. To determine the rate of formation of inositol phosphates IPX, suspended cells were pre-incubated with 0.1 μM [^3H]myo-inositol for 60 min, washed, and incubated with 10 mM LiCl for 15 min. […] The incubation was stopped by addition of 0.5 ml of chloroform methanol HCl mixture (2:1:0.1). After separation of water and organic phases, 0.6 ml of water phase was applied to Dowex columns (1.5 g of Dowex per column), washed by 20 ml of 60 mM ammonium formate/5 mM sodium borate buffer and eluted from columns with 4 ml of 1M ammonium formate/0.1 formic acid buffer and measured by liquid scintillation spectrometry.
# (§4) For bi-phasic response, curves were inhibitory and stimulatory phase were fitted separately. Operational Model of Functional Agonism
# (§5) [formula] where y is functional response at concentration of tested compound x, EMAX is maximal response of the system, KA is equilibrium dissociation constant and nH is slope factor. Eq. 5 was fitted to data from functional experiments. Eq. 5 was fitted to data by the two-step procedure described earlier. […] In the second step, Eq. 5 with EMAX fixed to the value determined in the first step was fitted to individual experimental data sets. Relative Intrinsic Activity
# (§6) Muscarinic receptors are also able to stimulate non-preferential signalling pathways.
# [2] = molecular target: T2, M4 muscarinic receptor (Homo sapiens, UniProt P08173); assay: accumulation of IPX, M4 CHO cells (M4Gq); design: host or cells: CHO cells, stably transfected; settings: for RAi / E′MAX / τ / Δlog(τ/KA): M4Gq (↑IPX); for RAi: Table 8, relative to carbachol; for E′MAX / τ: Table 8; for Δlog(τ/KA): Table 8, to carbachol
# T2 sequence (P08173 1-479): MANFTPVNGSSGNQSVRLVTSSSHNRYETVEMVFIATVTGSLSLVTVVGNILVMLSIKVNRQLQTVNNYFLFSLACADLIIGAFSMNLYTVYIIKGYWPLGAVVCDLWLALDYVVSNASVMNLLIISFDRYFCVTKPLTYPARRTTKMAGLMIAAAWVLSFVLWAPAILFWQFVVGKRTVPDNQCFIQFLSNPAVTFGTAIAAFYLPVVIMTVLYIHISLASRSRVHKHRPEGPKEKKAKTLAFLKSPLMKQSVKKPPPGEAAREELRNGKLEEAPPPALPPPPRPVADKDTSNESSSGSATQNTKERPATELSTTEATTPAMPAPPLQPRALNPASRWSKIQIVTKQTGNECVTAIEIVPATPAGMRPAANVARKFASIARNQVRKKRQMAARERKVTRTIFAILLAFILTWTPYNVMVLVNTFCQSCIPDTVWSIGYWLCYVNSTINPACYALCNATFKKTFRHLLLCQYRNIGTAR
# Description: as §2, §3, §4, §5
# [3] = molecular target: M3 muscarinic receptor (Homo sapiens, UniProt P20309); assay: inhibition of forskolin-stimulated cAMP, M3 CHO cells (M3Gi); design: host or cells: CHO cells, stably transfected; settings: for Emax: CHO; for Emax / EC50 / τ / RAi / Kd: M3Gi (↓cAMP); for Emax / EC50 / τ / Kd: Table 8; for effect on forskolin-stimulated production of cAMP: M3, non-preferential response, in words; for RAi: Table 8, relative to carbachol; for Kd: read-out: pKA (converted)
# Sequence of M3 muscarinic receptor (P20309 whole entry): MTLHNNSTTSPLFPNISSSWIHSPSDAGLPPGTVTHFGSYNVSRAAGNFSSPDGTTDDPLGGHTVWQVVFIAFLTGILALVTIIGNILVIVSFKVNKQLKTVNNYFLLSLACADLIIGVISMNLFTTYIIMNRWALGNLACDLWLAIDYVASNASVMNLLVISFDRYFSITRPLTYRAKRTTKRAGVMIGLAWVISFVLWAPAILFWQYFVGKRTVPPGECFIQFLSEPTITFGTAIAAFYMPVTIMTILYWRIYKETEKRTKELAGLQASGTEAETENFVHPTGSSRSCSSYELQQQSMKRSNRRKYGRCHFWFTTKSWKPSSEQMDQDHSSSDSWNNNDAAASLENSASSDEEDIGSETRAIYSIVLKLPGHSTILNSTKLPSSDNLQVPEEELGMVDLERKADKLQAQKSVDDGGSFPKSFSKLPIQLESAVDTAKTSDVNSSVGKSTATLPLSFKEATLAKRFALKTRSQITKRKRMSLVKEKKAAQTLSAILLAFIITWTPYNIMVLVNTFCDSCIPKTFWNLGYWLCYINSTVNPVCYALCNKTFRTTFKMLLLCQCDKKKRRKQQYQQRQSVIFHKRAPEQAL
# Description: as §1, §2, §3, §4, §5, §6
Structure (SMILES),RAi [1],accumulation of IPX [1],RAi [2],Emax [3],effect on forskolin-stimulated production of cAMP [3],EC50 [3],τ [3],RAi [3],Kd [3],E′MAX [1],τ [1],Δlog(τ/KA) [1],E′MAX [2],τ [2],Δlog(τ/KA) [2],EC50 [1],Kd [1],EC50 [2],Kd [2]
"C1=CCN(Cc2cccs2)CC1.Cl [Compound 6A, 1-[(thiophen-2-yl)methyl]-1,2,3,6-tetrahydropyridin-1-ium chloride]",0,did not stimulate IPX accumulation,0,13 ± 1%,inhibited cAMP production,7.76 µM,0.17 ± 0.02,+inf.,10 µM,,,,,,,,,,
"C[N+]1(Cc2cccs2)CC=CCC1.[I-] (stereo not shown) [Compound 7A, 1-methyl-1-[(thiophen-2-yl)methyl]-1,2,3,6-tetrahydropyridin-1-ium iodide]",0,did not stimulate IPX accumulation,0,16 ± 1%,inhibited cAMP production,8.71 µM,0.22 ± 0.02,+inf.,10 µM,,,,,,,,,,
"C[N+](C)(C)CCOC(N)=O [carbachol, reference compound]",,stimulated accumulation of IPX,,,,,,,,4.9 ± 0.3 fold over basal,4.5 ± 0.5,0,1.78 ± 0.05 fold over basal,0.24 ± 0.03,0,,,,
"O=C1CCCN1CC#CCN1CCCC1 [oxotremorine, reference compound]",2.41 ± 0.22,,4.69 ± 0.17,,,,,,,4.1 ± 0.3 fold over basal,1.9 ± 0.2,−0.38 ± 0.05,1.58 ± 0.04 fold over basal,0.17 ± 0.02,−0.67 ± 0.06,0.0708 µM,0.2 µM,0.162 µM,0.2 µM
